# Data taken from US6355799B1, “Substituted benzene compounds, process for their preparation, and herbicidal and defoliant compositions containing them” (ISK Americas Incorporated, priority 1997, dated 2002).
# Tests used:
# Assay type in all cases: in vivo
# [1] = tested on: field corn (Zea mays L., var. Dekalb 535, CORN); assay: Pre-emerge test, crop safety; conditions: for Pre-emerge phytotoxicity rating (0-100), crop damage, CORN: rated 14 days after application, 0 = no damage, 100 = complete death; for phytotoxicity rating CORN: pre-emerge, 14 days after application, rating scale 0-100
# In short: (§1)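 Visual ratings on a 0-100 scale (0 no damage, 100 all plants dead) were taken at 14 days after treatment. Rates of 15-1000 g ai/ha in acetone, 187 l/ha, were sprayed onto soil one day after planting (pre-emerge) or onto 2-3 leaf plants with 0.25% v/v surfactant (post-emerge).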
# [2] = tested on: upland rice (Oryza sp., var. Tebonnet, RICE); assay: Pre-emerge test, crop safety; conditions: for Pre-emerge phytotoxicity rating (0-100), crop damage, RICE: rated 14 days after application, 0 = no damage, 100 = complete death; for phytotoxicity rating RICE: pre-emerge, 14 days after application, rating scale 0-100
# In short: as §1
# [3] = tested on: green foxtail (Setaria viridis, SETVI); assay: Pre-emerge test, greenhouse herbicide activity screening; conditions: for Pre-emerge Herbicidal Activity, phytotoxicity rating (0-100), SETVI: rated 14 days after application, 0 = no damage, 100 = complete death; for phytotoxicity rating SETVI: pre-emerge, 14 days after application, rating scale 0-100
# In short: as §1
# [4] = tested on: barnyardgrass (Echinochloa crus-galli, ECHCG); assay: as above; conditions: for Pre-emerge Herbicidal Activity, phytotoxicity rating (0-100), ECHCG: rated 14 days after application, 0 = no damage, 100 = complete death; for phytotoxicity rating ECHCG: pre-emerge, 14 days after application, rating scale 0-100
# In short: as §1
# [5] = tested on: sicklepod (Cassia obtusifolia, CASOB); assay: as above; conditions: for Pre-emerge Herbicidal Activity, phytotoxicity rating (0-100), CASOB: rated 14 days after application, 0 = no damage, 100 = complete death; for phytotoxicity rating CASOB: pre-emerge, 14 days after application, rating scale 0-100
# In short: as §1
# [6] = tested on: ivyleaf morningglory (Ipomoea hederacea, IPOHE); assay: as above; conditions: for Pre-emerge Herbicidal Activity, phytotoxicity rating (0-100), IPOHE: rated 14 days after application, 0 = no damage, 100 = complete death; for phytotoxicity rating IPOHE: pre-emerge, 14 days after application, rating scale 0-100
# In short: as §1
# [7] = tested on: velvetleaf (Abutilon theophrasti, ABUTH); assay: as above; conditions: for Pre-emerge Herbicidal Activity, phytotoxicity rating (0-100), ABUTH: rated 14 days after application, 0 = no damage, 100 = complete death; for phytotoxicity rating ABUTH: pre-emerge, 14 days after application, rating scale 0-100
# In short: as §1
# [8] = tested on: johnsongrass (Sorghum halepense, SORHA); assay: as above; conditions: for Pre-emerge Herbicidal Activity, phytotoxicity rating (0-100), SORHA: rated 14 days after application, 0 = no damage, 100 = complete death; for phytotoxicity rating SORHA: pre-emerge, 14 days after application, rating scale 0-100
# In short: as §1
# [9] = tested on: large crabgrass (Digitaria sanguinalis, DIGSA); assay: as above; conditions: for Pre-emerge Herbicidal Activity, phytotoxicity rating (0-100), DIGSA: rated 14 days after application, 0 = no damage, 100 = complete death; for phytotoxicity rating DIGSA: pre-emerge, 14 days after application, rating scale 0-100
# In short: as §1
# [10] = tested on: common ragweed (Ambrosia artemisizfolia L., AMBEL); assay: as above; conditions: for Pre-emerge Herbicidal Activity, phytotoxicity rating (0-100), AMBEL: rated 14 days after application, 0 = no damage, 100 = complete death; for phytotoxicity rating AMBEL: pre-emerge, 14 days after application, rating scale 0-100
# In short: as §1
# [11] = tested on: lambsquarters (Chenopodium album, CHEAL); assay: as above; conditions: for Pre-emerge Herbicidal Activity, phytotoxicity rating (0-100), CHEAL: rated 14 days after application, 0 = no damage, 100 = complete death; for phytotoxicity rating CHEAL: pre-emerge, 14 days after application, rating scale 0-100
# In short: as §1
# [12] = tested on: redroot pigweed (Amaranthus retroflexus, AMARE); assay: as above; conditions: for Pre-emerge Herbicidal Activity, phytotoxicity rating (0-100), AMARE: rated 14 days after application, 0 = no damage, 100 = complete death; for phytotoxicity rating AMARE: pre-emerge, 14 days after application, rating scale 0-100
# In short: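 Rating: 0–100 visual injury, 14 DAA. Application: acetone, 187 l/ha, 15–1000 g ai/ha, flat-fan track sprayer with nozzle 40–45 cm above soil or canopy. Post-emerge runs used 0.25% v/v surfactant on 2–3 leaf plants.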
structure (smiles),measurement,setting,value
CCOc1ccc(C(=O)Nc2c(OC)c(Cl)cc(F)c2-n2c(=O)cc(C(F)(F)F)n(C)c2=O)cc1 [2-64],"Pre-emerge phytotoxicity rating (0-100), crop damage, CORN",[1]; 63 g ai/ha,0
same,"Pre-emerge phytotoxicity rating (0-100), crop damage, CORN",[1]; 250 g ai/ha,35
same,"Pre-emerge phytotoxicity rating (0-100), crop damage, RICE",[2]; 63 g ai/ha,10
same,"Pre-emerge phytotoxicity rating (0-100), crop damage, RICE",[2]; 250 g ai/ha,60
same,"Pre-emerge Herbicidal Activity, phytotoxicity rating (0-100), SETVI",[3]; 63 g ai/ha,100
same,"Pre-emerge Herbicidal Activity, phytotoxicity rating (0-100), SETVI",[3]; 250 g ai/ha,100
same,"Pre-emerge Herbicidal Activity, phytotoxicity rating (0-100), ECHCG",[4]; 63 g ai/ha,0
same,"Pre-emerge Herbicidal Activity, phytotoxicity rating (0-100), ECHCG",[4]; 250 g ai/ha,60
same,"Pre-emerge Herbicidal Activity, phytotoxicity rating (0-100), CASOB",[5]; 63 g ai/ha,0
same,"Pre-emerge Herbicidal Activity, phytotoxicity rating (0-100), CASOB",[5]; 250 g ai/ha,100
same,"Pre-emerge Herbicidal Activity, phytotoxicity rating (0-100), IPOHE",[6]; 63 g ai/ha,0
same,"Pre-emerge Herbicidal Activity, phytotoxicity rating (0-100), IPOHE",[6]; 250 g ai/ha,40
same,"Pre-emerge Herbicidal Activity, phytotoxicity rating (0-100), ABUTH",[7]; 63 g ai/ha,100
same,"Pre-emerge Herbicidal Activity, phytotoxicity rating (0-100), ABUTH",[7]; 250 g ai/ha,100
same,"Pre-emerge Herbicidal Activity, phytotoxicity rating (0-100), SORHA",[8]; 63 g ai/ha,10
same,"Pre-emerge Herbicidal Activity, phytotoxicity rating (0-100), SORHA",[8]; 250 g ai/ha,50
same,"Pre-emerge Herbicidal Activity, phytotoxicity rating (0-100), DIGSA",[9]; 63 g ai/ha,40
same,"Pre-emerge Herbicidal Activity, phytotoxicity rating (0-100), DIGSA",[9]; 250 g ai/ha,70
same,"Pre-emerge Herbicidal Activity, phytotoxicity rating (0-100), AMBEL",[10]; 63 g ai/ha,0
same,"Pre-emerge Herbicidal Activity, phytotoxicity rating (0-100), AMBEL",[10]; 250 g ai/ha,60
same,"Pre-emerge Herbicidal Activity, phytotoxicity rating (0-100), CHEAL",[11]; 63 g ai/ha,90
same,"Pre-emerge Herbicidal Activity, phytotoxicity rating (0-100), CHEAL",[11]; 250 g ai/ha,100
same,"Pre-emerge Herbicidal Activity, phytotoxicity rating (0-100), AMARE",[12]; 63 g ai/ha,90
same,"Pre-emerge Herbicidal Activity, phytotoxicity rating (0-100), AMARE",[12]; 250 g ai/ha,100
CCOC(=O)C(Cl)Cc1c(OCC)c(Cl)cc(F)c1-n1c(=O)cc(C(F)(F)F)n(C)c1=O (stereo not drawn) [14-64],phytotoxicity rating CORN,[1]; 63 g ai/ha,0
same,phytotoxicity rating CORN,[1]; 250 g ai/ha,0
same,phytotoxicity rating RICE,[2]; 63 g ai/ha,0
same,phytotoxicity rating RICE,[2]; 250 g ai/ha,10
same,phytotoxicity rating SETVI,[3]; 63 g ai/ha,0
same,phytotoxicity rating SETVI,[3]; 250 g ai/ha,100
same,phytotoxicity rating ECHCG,[4]; 63 g ai/ha,0
same,phytotoxicity rating ECHCG,[4]; 250 g ai/ha,95
same,phytotoxicity rating CASOB,[5]; 63 g ai/ha,0
same,phytotoxicity rating CASOB,[5]; 250 g ai/ha,0
same,phytotoxicity rating IPOHE,[6]; 63 g ai/ha,0
same,phytotoxicity rating IPOHE,[6]; 250 g ai/ha,0
same,phytotoxicity rating ABUTH,[7]; 63 g ai/ha,90
same,phytotoxicity rating ABUTH,[7]; 250 g ai/ha,100
same,phytotoxicity rating SORHA,[8]; 63 g ai/ha,0
same,phytotoxicity rating SORHA,[8]; 250 g ai/ha,20
same,phytotoxicity rating DIGSA,[9]; 63 g ai/ha,50
same,phytotoxicity rating DIGSA,[9]; 250 g ai/ha,100
same,phytotoxicity rating AMBEL,[10]; 63 g ai/ha,20
same,phytotoxicity rating AMBEL,[10]; 250 g ai/ha,60
same,phytotoxicity rating CHEAL,[11]; 63 g ai/ha,60
same,phytotoxicity rating CHEAL,[11]; 250 g ai/ha,100
same,phytotoxicity rating AMARE,[12]; 63 g ai/ha,100
same,phytotoxicity rating AMARE,[12]; 250 g ai/ha,100
